According to patent publication US20260207795A1, “SMALL MOLECULE TRACERS BINDING TO ALPHA-SYNUCLEIN AGGREGATES AND THEIR USES” (Fudan University, priority 2021, published 2026):

What was measured:
[1] = Blood-brain barrier permeability test in rat; type: in vivo; details: brain homogenate / blood supernatant after centrifugation, intravenous, SD rats, 5 mg/kg tail vein, 20 min after administration, LC-MS/MS, >0.3 indicates good blood-brain barrier penetration, read-out: brain/blood ratio
Procedure: The compound of the invention is injected into a rat tail vein to determine the blood-brain barrier permeability in vivo according to the following method.
Dissolve the tested compound in DMSO, and add castor oil and PBS for dilution (DMSO:castor oil:PBS=1:1:8). SD rats were weighed and given 5 mg/kg in the tail vein. 500 μL of blood was taken 20 min after administration after anesthetized with isoflurane. Cardiac perfusion was performed with 200 mL PBS and stopped until the organ faded, following brain tissue was got out and washed with PBS.
After centrifuging the extracted blood at 9000 rpm for 5 min, 200 μL supernatant was taken, and added 800 μL methanol. After centrifuging at 14000 rpm for 10 min, the supernatant was taken and filtered through a 0.22 μm filter membrane and stored at −80° C. for use. 2 mL PBS and 2 mL methanol were added to about 0.5 g of brain tissue to make a tissue homogenization, and then 1 mL homogenate was taken out and centrifuged at 14,000 rpm for 10 min after 2 mL methanol was added, 1 mL supernatant was taken through 0.22 μm filter membrane and stored at −80° C. for use. The concentration of compounds in the above supernatant of blood and brain homogenate were checked by LC-MS/MS, respectively.
A brain/blood ratio of <0.1, 0.1-0.3, or >0.3 indicates blood-brain barrier penetration of weak, moderate, or good, respectively. […] Since all the compounds of the invention have similar structures and their clogP values are mostly between 1.0 and 3.0, it can be predicted that other compounds of the invention should also have acceptable blood-brain barrier permeability.

[2] = target: T1, α-synuclein aggregates in SH-SY5Y cells (Homo sapiens, UniProt P37840); test: Immunofluorescence imaging of SH-SY5Y cell model with α-synuclein aggregates (PFFs); type: cell-based; details: co-staining with α-synuclein antibody, compound 1 h at room temperature
T1 construct: made in house; host or cells: E. coli BL21 (DE3)
Procedure: SH-SY5Y cells belong to the SK—N—SH cell line and are a kind of human neuroblastoma cells. These cells can express a variety of important proteins of neurons, such as dopaminergic transporters, dopamine hydroxylase, and tyrosine hydroxylase, so they are often used in the study of the mechanism and pharmacodynamic evaluation of Parkinson's disease. The prepared α-synuclein aggregates (PFFs) are co-incubated with SH-SY5Y cells and endocytosed into cells after 12 hours through endocytosis. The cells were further incubated with α-synuclein antibodies and compounds successively, and observed by microscope after washing with PBS. The detailed operations are as follows.
SH-SY5Y cells were cultured in a high-glucose DMEM medium (containing 10% Gibco fetal bovine serum). After 5 times of resuscitation and passage, the cell state tended to be stable. Then PFFs was added to the medium and fluorescent staining was performed after 48 h. After sucked the cell culture solution and cleaned with PBS three times, 0.3% Triton X-100 was added and incubated for 10 min. After washing with PBS, 10% goat serum was added and closed for 1 h; After cleaning with PBS, primary antibody (1:1000, 610786, BD Biosciences) was added and incubated at 4° C. overnight. After cleaning with PBS, secondary antibodies (1:1000, goat-anti-rabbit Alex Fluor 594, and goat-anti-mouse Alex Fluor 488, Invitrogen) were added and incubated at room temperature for 2 h. Finally, the compound of the invention is added and incubated at room temperature for 1 h. After cleaning with PBS, the tablet is sealed and photographed by a laser confocal microscope.

[3] = target: T2, human α-synuclein aggregates (Homo sapiens, UniProt P37840); test: Binding affinity of the compounds to α-synuclein aggregates (fluorescence method); details: fluorescence saturation binding; α-synuclein aggregates (PFFs) 3 μM; room temperature, 1 hour
T2 construct: made in house; host or cells: E. coli BL21 (DE3)
Procedure: α-synuclein monomers were prepared into a buffer solution containing 1×PBS, where the final protein concentration was 100 μM ([…]), and incubated in a 1000 rpm shaker at 37° C. for 7 days to obtain α-synuclein aggregates. The initial and final concentrations of the monomer protein were determined by the BCA method.
The prepared α-synuclein aggregates, also known as preformed fibrils (PFFs), are used for protein affinity testing, construction of cell model, and testing of the invention.
10 mM mother solution of DMSO was prepared from 1 mg of the compound, then diluted to 20 μM with PBS, and made gradient dilution 7 times (3× each dilution); 30 μL of test compound was added to the 384-well plate, following the experimental group was added to 30 μL α-synuclein aggregates (3 μM), and the control group was added to the same amount of PBS. After the 384-well plate was incubated shaking at 50 rpm at room temperature for 1 hour, the plate was taken out to detect the maximum absorption and emission wavelengths of the compound with an ELISA Microplate Reader, and the fluorescence values were detected at these wavelengths, too. The fluorescence changes in different concentrations of compounds were calculated using the experimental group data minus the control group data, and the protein-binding affinity of compounds was obtained using the Saturation binding module of GraphPad Prism.
The binding affinity of the Formula I compound to α-synuclein aggregates is determined by the above method, and the dissociation equilibrium constant Kd is shown in Table 1.

[4] = tested on: Aβ plaques and Tau neurofibrillary tangles; test: Fluorescence staining of brain slices from patients with Alzheimer's disease (AD); parameters: species or system human; details: AD patient superior temporal gyrus sections, compound 30 μM
Procedure: (§1) Compound I-15 was diluted to 30 μM with PBS solution containing 50% EtOH, following incubated with the fresh frozen brain sections at room temperature for 30 minutes, then washed with 50% ethanol solution for 5 minutes and ultra-pure water twice for 3 minutes each time in sequence. After the sections were buried with an embedding agent (VECTASHIELD H-1000, Vector Laboratories), images of the lesion accumulation area on the sections were obtained by fluorescence microscopy. Analysis software (Image J) was used to quantify the fluorescence radiance of both the lesion area and the area of the non-forming lesion (background) to evaluate binding selectivity.
The dewaxed brain tissue was fixed in a 10% neutral buffer of formalin solution, embedded with paraffin, and then sliced with a thickness of 6 μm. The staining method is the same as the above method for DLB patients.

[5] = target: T3, Lewy bodies and Lewy neurites (α-synuclein lesions) (Homo sapiens, UniProt P37840); test: Fluorescence staining of brain slices from patients of dementia with Lewy body (DLB)
T3 construct: from tissue; host or cells: human DLB patient amygdala, fresh frozen sections
Procedure: Brain slices from patients of dementia with Lewy bodies were taken from the amygdala of a deceased person in stage 2 of dementia with Lewy bodies. Frozen sections of the amygdala with rich α-synuclein were performed with a thickness of 20 μm.
as §1

Row | Kp at 20 min [1] | Kd [3] [µM] | SMILES | binding to α-synuclein aggregates in SH-SY5Y cells (immunofluorescence, FIG. 1) [2] | also measured
1 | ≥ 1 | 0.1 to 0.2 | CN(C)c1ncc(/C=C/c2nc3cc(OCCF)ccc3n(Cc3ccccn3)c2=O)s1 [I-15] | excellent binding affinity and specificity | binding affinity to Aβ and Tau histology (FIG. 3) [4]: very weak; binding to Tau neurofibrillary filaments (FIG. 3) [4]: did not bind; binding affinity to α-synuclein lesions (staining of Lewy bodies and Lewy neurites, FIG. 2) ([5]; DLB patient amygdala frozen sections, compound 30 μM, 30 minutes): strong binding affinity; binding to α-synuclein pathological tissue compared with Aβ and Tau pathological tissue (selectivity) ([5]; DLB versus AD brain slices, FIG. 2 and FIG. 3): significantly stronger
2 | ≥ 1 | 0.2 to 0.5 | CN(C)c1ccc(/C=C/c2nc3cc(OCCF)ccc3n(Cc3ccncc3)c2=O)cc1 [I-12] | excellent binding affinity and specificity | –
3 | – | 0.5 to 1 | CN(C)c1ccc(/C=C/c2nc3cc(F)ccc3n(Cc3ccncc3)c2=O)cc1 [I-3] | – | –
4 | – | 0.1 to 0.2 | CN(C)c1ccc(/C=C/c2nc3cc(F)ccc3n(Cc3ccccn3)c2=O)cc1 [I-1] | – | –
5 | – | 0.5 to 1 | CN(C)c1ccc(/C=C/c2nc3cc(OCCF)ccc3n(Cc3cccnc3)c2=O)cc1 [I-9] | – | –
6 | – | 0.5 to 1 | CN(C)c1ccc(/C=C/c2nc3cc(F)ccc3n(Cc3cccnc3)c2=O)cc1 [I-2] | – | –
7 | ≥ 1 | 0.2 to 0.5 | CN(C)c1ccc(/C=C/c2nc3cc(OCCF)ccc3n(Cc3ccccn3)c2=O)cc1 [I-6] | excellent binding affinity and specificity | –
